According to patent publication US12036241B2, “Compositions and methods for immune cell modulation in adoptive immunotherapies” (Fate Therapeutics, Inc., priority 2017, dated 2024):
“Also recorded” adds a separate entry of the source. Read-outs that look alike come from different tables or passages of the source.

Legend:
[1] = test system: CD8+ T cells; assay: Cytokine production (IFNγ, IL-2, TNFα) after PMA/ionomycin, intracellular staining; format: cell-based, human; conditions: PMA/ionomycin 4 h; FIG. 3D
Protocol: The ability of T cells to respond to a variety of stimuli can be important to their function. The capacity of T cells to produce multiple cytokines in response to non-specific stimulation is a measure of their ‘multifunctionality’. To assess whether compounds affect this ‘multifunctional’ response, the ability of modulated T cells to produce interferon-γ (IFNγ), IL-2 and/or TNFα post-stimulation was determined. After CD8^+ T cell treatment with each of the selected compounds, cells were stimulated with a mixture of PMA/ionomycin for four hours. Following stimulation, cytokine production was measured using intracellular cytokine staining with antibodies recognizing these cytokines conjugated to different fluorophores. Fluorescence was measured using flow cytometry. Cell were defined as multifunctional if they produced two or more cytokines. The proportion of T cell subsets that produce specific single, double or triple cytokines was examined and compared to cells without modulation using a selected compound.
The ability of T cells to respond to a variety of stimuli is important for their function. The capacity of T cells to produce multiple cytokines in response to non-specific stimulation is a measure of their “multifunctionality”. To assess whether selected compounds affect this “multifunctional” response in view of their phenotype skewing effect on the treated cells, the ability of treated cells to produce interferon-γ (IFNγ), IL-2 and TNFα post-stimulation was determined. After treatment of CD8+ T cells with a compound from Table 1, cells were stimulated with a mixture of PMA/ionomycin for four hours. Following stimulation, cytokine production was measured by intracellular cytokine staining with fluorescence-emitting antibodies recognizing these cytokines conjugated to different fluorophores. Fluorescence was measured using flow cytometry. Cells were defined as multifunctional if they produced at least two of the three cytokines.

[2] = test system: irradiated K562 cells expressing CD19 and mKate2; assay: Target cell killing by compound-treated CAR-T cells (IncuCyte); format: cell-based, human; conditions: earlier time points, 24 to 65 hours; FIG. 4A
[3] = test system: CAR-T cells in spleen and bone marrow; assay: In vivo persistence of CAR-T cells during and after tumor clearance; set-up: species or system mice; conditions: FIG. 9 legend
Excerpt: Further, in vivo persistence of compound-treated CAR-T cells during and after tumor clearance was also investigated. One of the main correlates of successful CAR-T cell therapy in patients is the persistence of CAR-T cells (i.e., through cell survival and/or cell expansion in vivo). To model CAR-T cell persistence in vivo, CD4+ and CD8+ T cells were separately expanded and transduced with a lentivirus encoding CAR-T2A-Thy1 and cultured in the presence of DMSO or a lentivirus encoding CAR-T2A-GFP and cultured in the presence of a testing compound (Table 3). Then a cohort of mice were injected with a curative dose (2×10^6) of CAR-T cells that was composed of CAR-T cell subsets from two different expansion protocols and mixed at approximately a 1:1:1:1 ratio, and the initial ratio of the CAR-T cells subsets in the injection mix was further determined prior to injection. All mice in the cohort had received Nalm-6-luc cells 4 days earlier and were able to clear the tumor by the injected CAR-T cells.
At day 7, 15, 21, and 32 post CAR-T cell injection (day 0: tumor engraftment, day 4: CAR-T cell injection) mice were sacrificed and the relative proportions of the CAR-T cells expanded in DMSO or the testing compound in both spleen and bone marrow were determined. FIG. 9 exemplifies the effect of a PDK1 inhibitor treatment on CAR-T cell in vivo persistence. […]

[4] = test system: CAR-T cells; assay: Serial restimulation of CAR-T cells produced with vehicle, PI3K inhibitor or PDK1 inhibitor; format: cell-based, human; conditions: after antigen stimulation and withdrawal, and with coated beads; FIG. 10 legend
Protocol: At the end of the manufacturing process, the cells were frozen prior to subsequent functional analysis.
The ability of CAR-T cells produced in the presence of vehicle, PI3K inhibitor, or PDK1 inhibitor to expand through multiple rounds of antigen stimulation was measured in a serial restimulation assay, wherein cryopreserved CAR-T cells were thawed and co-cultured in the presence of antigen-bearing, irradiated target cells. Every 3 to 4 days the CAR-T and target cell ratios were readjusted to approximately 1:1. […] As an alternative to using antigen-bearing, irradiated target cells for CAR-T cell stimulation, cryopreserved CAR-T cells from three independent donors produced in the presence of vehicle, PI3Ki or PDKli were thawed in T cell growth media and subsequently assessed for expansion and survival, as measured by AUC (area under the curve) of the expansion over 14 days of stimulation with anti-CAR antibodies conjugated to beads.

[5] = test system: CD19 and BCMA CAR-T cells; assay: Cytokine production on stimulation with antigen-bearing cells, MSD analysis; format: cell-based, human
[6] = test system: Nalm-6; assay: Survival in Nalm6/NSG tumor model, suboptimal CAR-T dose; format: in vivo, NSG mice; conditions: 3×10^5 CD19 CAR-T cells; FIG. 12A; listed as PDK1 inhibitor
Protocol: (§1) Next, an in vivo assay was conducted to further characterize CAR-T cells produced in the presence of a PI3K inhibitor or a PDK1 inhibitor for tumor clearance. NSG mice were injected with a human leukemia line, Nalm-6. Four days later, mice were treated with a suboptimal dose (3×10^5) of freshly thawed CD19 CAR-T cells generated in the presence of vehicle (“DMSO” n=8), PI3K inhibitor (n=8), or PDK1 inhibitor (n=8). Some tumor bearing mice (n=2) also received expanded T cells that were not transduced with CAR (untransduced or “UNTD”). Negative control mice (n=2, “Unmanip”) received neither tumor nor CAR T cells. […] Seven days later, a suboptimal dose (2.5×10^5) of CD19 CAR-T cells produced in the presence of DMSO, PDK1 inhibitor, or PI3K inhibitor were transferred and the survival of the tumor bearing mice was monitored.

[7] = test system: Raji; assay: Survival in Raji/NSG tumor model, suboptimal CAR-T dose; format: in vivo, NSG mice; conditions: 2.5×10^5 CD19 CAR-T cells; FIG. 12B; listed as PDK1 inhibitor
Protocol: as §1

[8] = test system: luciferase expressing Nalm6 tumor cells; assay: Two-stage tumor clearance model, primary tumor; format: in vivo, NSG mice; conditions: compared to DMSO treated CAR-T; FIG. 13C
Protocol: (§2) To further assess tumor clearance and control by CAR-T cells modulated with a selected compound, a two-stage tumor clearance model was established. […] Secondary tumor burden was measured via bi-weekly caliper measurements and IVIS imaging. IVIS control mice received neither tumor nor CAR-T cells and served as the background luminescence for the IVIS imager.

[9] = test system: K562 tumor cells engineered to express CD19 and luciferase; assay: Two-stage tumor clearance model, secondary tumor re-challenge; format: in vivo, NSG mice; conditions: re-challenge 47 days post primary tumor, FIG. 13D
Protocol: as §2

[10] = test system: CD8+ CAR-T cells; conditions: FIG. 2C

CNc1nc(-c2ccc3c(N)n[nH]c3c2)cc(N2C[C@@H](C(=O)NC3CCCCC3)CC[C@H]2C)n1 [Compound 21, GSK2334470]
increase of IFNγ+ only subpopulation [1]: ~10 fold | increase of IL-2 only subpopulation [1]: ~19 fold | kinetics of target cell killing compared to vehicle [2]: slower than for vehicle | persistence of CAR-T cells during and after tumor clearance in vivo [3]: increased persistence | CAR-T cell expansion [4]: improves CAR-T cell expansion | IL-2 production compared to DMSO ([5]; after 14 days of CAR activation): overall greater amounts of IL-2 | IL-2 production compared to DMSO ([5]; immediately following thaw (day 0)): greater amounts of IL-2 | IFNγ and TNF production compared to DMSO ([5]; post thaw): comparable | survival of tumor bearing mice compared to DMSO generated CAR-T cells [6]: prolonged survival; also recorded: improves survival | survival of tumor bearing mice compared to DMSO treated CAR-T cells [7]: substantially improved; also recorded: improves survival | in vivo efficacy at day 11 post primary tumor injection [8]: greater in vivo efficacy | control of secondary tumor ([9]; listed as PDK1): superior and rapid control of secondary tumor | control of secondary tumor ([9]; listed as PDK1 inhibitor): rapid control of secondary tumor | donors in which treatment significantly improved expansion of CD8+ CAR-T cells vs vehicle ([10]; 5 healthy donors): 4 out of 5 | expansion of CD8+ CAR-T cells in comparison to vehicle treatment ([10]; listed as PDK1i): significantly improved | expansion of CD8+ CAR-T cells in comparison to vehicle treatment ([10]; listed as PDK1 inhibitor): improves expansion
